Laboratory results taken from PubChem BioAssay (NCI).
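GI50 = concentration required for 50% inhibition of growth. TGI marks complete inhibition of growth.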

How the values were obtained:
Test in all cases: NCI anticancer screen, dose series, 384-well format
A498 renal = tested on: A498 renal
HS 578T breast = tested on: HS 578T breast
MOLT-4 leukemia = tested on: MOLT-4 leukemia
A549 NSCLC = tested on: A549 NSCLC
MCF7 breast = tested on: MCF7 breast
HCT-15 colon = tested on: HCT-15 colon
SK-MEL-2 melanoma = tested on: SK-MEL-2 melanoma
CCRF-CEM leukemia = tested on: CCRF-CEM leukemia
U251 glioblastoma = tested on: U251 glioblastoma
NCI/ADR-RES ovarian = tested on: NCI/ADR-RES ovarian
HCC-2998 colon = tested on: HCC-2998 colon
RPMI-8226 leukemia = tested on: RPMI-8226 leukemia
DU-145 prostate = tested on: DU-145 prostate
SR leukemia = tested on: SR leukemia
MALME-3M melanoma = tested on: MALME-3M melanoma
K-562 leukemia = tested on: K-562 leukemia
NCI-H322M lung = tested on: NCI-H322M lung
SN12C renal = tested on: SN12C renal
NCI-H226 lung = tested on: NCI-H226 lung
HCT-116 colon = tested on: HCT-116 colon
HT29 colon = tested on: HT29 colon
MDA-MB-468 breast = tested on: MDA-MB-468 breast
OVCAR-4 ovarian = tested on: OVCAR-4 ovarian
SF-295 CNS = tested on: SF-295 CNS
786-0 renal = tested on: 786-0 renal
MDA-MB-231 breast = tested on: MDA-MB-231 breast
SK-OV-3 ovarian = tested on: SK-OV-3 ovarian
NCI-H522 lung = tested on: NCI-H522 lung
EKVX NSCLC = tested on: EKVX NSCLC
COLO 205 colon = tested on: COLO 205 colon
UO-31 renal = tested on: UO-31 renal
SF-268 CNS = tested on: SF-268 CNS
T-47D breast = tested on: T-47D breast
M14 melanoma = tested on: M14 melanoma
OVCAR-3 ovarian = tested on: OVCAR-3 ovarian
SK-MEL-28 melanoma = tested on: SK-MEL-28 melanoma
RXF 393 renal = tested on: RXF 393 renal
NCI-H23 lung = tested on: NCI-H23 lung
SK-MEL-5 melanoma = tested on: SK-MEL-5 melanoma
HOP-92 NSCLC = tested on: HOP-92 NSCLC
NCI-H460 NSCLC = tested on: NCI-H460 NSCLC
SNB-75 CNS = tested on: SNB-75 CNS
KM12 colon = tested on: KM12 colon
TK-10 renal = tested on: TK-10 renal
HOP-62 NSCLC = tested on: HOP-62 NSCLC
UACC-62 melanoma = tested on: UACC-62 melanoma
LOX IMVI melanoma = tested on: LOX IMVI melanoma

CCCS(=O)(=O)Nc1ccc(F)c(C(=O)c2c[nH]c3ncc(-c4ccc(Cl)cc4)cc23)c1F
GI50 (A498 renal): 2960 nM | TGI (A498 renal): 9.4 µM | GI50 (HS 578T breast): 2520 nM | TGI (HS 578T breast): 6.2 µM | GI50 (MOLT-4 leukemia): 3.23 µM | TGI (MOLT-4 leukemia): 8.74 µM | GI50 (A549 NSCLC): 3.99 µM | TGI (A549 NSCLC): 10.8 µM | GI50 (MCF7 breast): 6.82 µM | TGI (MCF7 breast): 13.3 µM | GI50 (HCT-15 colon): 5.83 µM | TGI (HCT-15 colon): 13.5 µM | GI50 (SK-MEL-2 melanoma): 75.8 nM | TGI (SK-MEL-2 melanoma): 330 nM | GI50 (CCRF-CEM leukemia): 4.15 µM | TGI (CCRF-CEM leukemia): 6.41 µM | GI50 (U251 glioblastoma): 4.35 µM | TGI (U251 glioblastoma): 9.9 µM | GI50 (NCI/ADR-RES ovarian): 9.06 µM | TGI (NCI/ADR-RES ovarian): 22.4 µM | GI50 (HCC-2998 colon): 593 nM | TGI (HCC-2998 colon): 1960 nM | GI50 (RPMI-8226 leukemia): 3.38 µM | TGI (RPMI-8226 leukemia): 6.5 µM | GI50 (DU-145 prostate): 5.88 µM | TGI (DU-145 prostate): 18.6 µM | GI50 (SR leukemia): 1670 nM | TGI (SR leukemia): 4.22 µM | GI50 (MALME-3M melanoma): 24.2 nM | TGI (MALME-3M melanoma): 89.7 nM | GI50 (K-562 leukemia): 1660 nM | TGI (K-562 leukemia): 3.43 µM | GI50 (NCI-H322M lung): 4.65 µM | TGI (NCI-H322M lung): 16 µM | GI50 (SN12C renal): 8.1 µM | TGI (SN12C renal): 22.5 µM | GI50 (NCI-H226 lung): 7.95 µM | TGI (NCI-H226 lung): 17.2 µM | GI50 (HCT-116 colon): 3.85 µM | TGI (HCT-116 colon): 11.5 µM | GI50 (HT29 colon): 146 nM | TGI (HT29 colon): 10.4 µM | GI50 (MDA-MB-468 breast): 5.74 µM | TGI (MDA-MB-468 breast): 9.38 µM | GI50 (OVCAR-4 ovarian): 8.45 µM | TGI (OVCAR-4 ovarian): 20.6 µM | GI50 (SF-295 CNS): 3.34 µM | TGI (SF-295 CNS): 5.93 µM | GI50 ([…]-0 renal): 4.03 µM | TGI (786-0 renal): 13.5 µM | GI50 (MDA-MB-231 breast): 3.8 µM | TGI (MDA-MB-231 breast): 8.85 µM | GI50 (SK-OV-3 ovarian): 5.57 µM | TGI (SK-OV-3 ovarian): 12 µM | GI50 (NCI-H522 lung): 7.93 µM | TGI (NCI-H522 lung): 16 µM | GI50 (EKVX NSCLC): 7 µM | TGI (EKVX NSCLC): 12.7 µM | GI50 (COLO 205 colon): 42.5 nM | TGI (COLO 205 colon): 1180 nM | GI50 (UO-31 renal): 4.74 µM | TGI (UO-31 renal): 16.6 µM | GI50 (SF-268 CNS): 7.88 µM | TGI (SF-268 CNS): 15.8 µM | GI50 (T-47D breast): 6.77 µM | TGI (T-47D breast): 16.9 µM | GI50 (M14 melanoma): 30.5 nM | TGI (M14 melanoma): 321 nM | GI50 (OVCAR-3 ovarian): 8.19 µM | TGI (OVCAR-3 ovarian): 16.1 µM | GI50 (SK-MEL-28 melanoma): 27.4 nM | TGI (SK-MEL-28 melanoma): 388 nM | GI50 (RXF 393 renal): 2360 nM | TGI (RXF 393 renal): 6.45 µM | GI50 (NCI-H23 lung): 4.19 µM | TGI (NCI-H23 lung): 13.2 µM | GI50 (SK-MEL-5 melanoma): 79.4 nM | TGI (SK-MEL-5 melanoma): 1810 nM | GI50 (HOP-92 NSCLC): 4.98 µM | TGI (HOP-92 NSCLC): 12.1 µM | GI50 (NCI-H460 NSCLC): 4.97 µM | TGI (NCI-H460 NSCLC): 13.6 µM | GI50 (SNB-75 CNS): 5.79 µM | TGI (SNB-75 CNS): 13.3 µM | GI50 (KM12 colon): 4.11 µM | TGI (KM12 colon): 13.1 µM | GI50 (TK-10 renal): 13.5 µM | TGI (TK-10 renal): 22.3 µM | GI50 (HOP-62 NSCLC): 5.12 µM | TGI (HOP-62 NSCLC): 14.9 µM | GI50 (UACC-62 melanoma): 34.5 nM | TGI (UACC-62 melanoma): 912 nM | GI50 (LOX IMVI melanoma): 3.93 µM | TGI (LOX IMVI melanoma): 11.6 µM
